Columns and labels:
human GST-PIKFYVE = biological target: T1, human GST-PIKFYVE (Homo sapiens, UniProt Q9Y2I7); assay: ADP-Glo kinase assay, enzyme inhibition activity against human PIKFYVE (Carna biosciences); assay type: biochemical; settings: inhibitory activity at final compound concentration 10 nM; 1 hour at room temperature
T1 construct: GST; purchased Carna biosciences 11-118
Procedure, shortened: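 Human GST-PIKFYVE (glutathione Sepharose-purified) was reacted with substrate and ATP for 1 h at room temperature in 50 mM MOPS, 1 mM DTT, pH 7.2, with compound at 10 nM final. ADP formed was read by ADP-Glo luminescence; inhibition was calculated against no-enzyme (100%) and no-compound (0%) controls.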

PIKFYVE = biological target: T2, PIKFYVE (Homo sapiens, UniProt Q9Y2I7); assay: NanoBRET TE Intracellular Kinase Assay, interaction of PIKFYVE and compounds in HEK293 cells; assay type: cell-based; settings: IC50 class from BRET; HEK293 cells expressing PIKFYVE-NanoLuc; 2 hours incubation
T2 construct: host or cells: HEK293 (ATCC, CRL-1573)
T2 sequence (Q9Y2I7 whole entry): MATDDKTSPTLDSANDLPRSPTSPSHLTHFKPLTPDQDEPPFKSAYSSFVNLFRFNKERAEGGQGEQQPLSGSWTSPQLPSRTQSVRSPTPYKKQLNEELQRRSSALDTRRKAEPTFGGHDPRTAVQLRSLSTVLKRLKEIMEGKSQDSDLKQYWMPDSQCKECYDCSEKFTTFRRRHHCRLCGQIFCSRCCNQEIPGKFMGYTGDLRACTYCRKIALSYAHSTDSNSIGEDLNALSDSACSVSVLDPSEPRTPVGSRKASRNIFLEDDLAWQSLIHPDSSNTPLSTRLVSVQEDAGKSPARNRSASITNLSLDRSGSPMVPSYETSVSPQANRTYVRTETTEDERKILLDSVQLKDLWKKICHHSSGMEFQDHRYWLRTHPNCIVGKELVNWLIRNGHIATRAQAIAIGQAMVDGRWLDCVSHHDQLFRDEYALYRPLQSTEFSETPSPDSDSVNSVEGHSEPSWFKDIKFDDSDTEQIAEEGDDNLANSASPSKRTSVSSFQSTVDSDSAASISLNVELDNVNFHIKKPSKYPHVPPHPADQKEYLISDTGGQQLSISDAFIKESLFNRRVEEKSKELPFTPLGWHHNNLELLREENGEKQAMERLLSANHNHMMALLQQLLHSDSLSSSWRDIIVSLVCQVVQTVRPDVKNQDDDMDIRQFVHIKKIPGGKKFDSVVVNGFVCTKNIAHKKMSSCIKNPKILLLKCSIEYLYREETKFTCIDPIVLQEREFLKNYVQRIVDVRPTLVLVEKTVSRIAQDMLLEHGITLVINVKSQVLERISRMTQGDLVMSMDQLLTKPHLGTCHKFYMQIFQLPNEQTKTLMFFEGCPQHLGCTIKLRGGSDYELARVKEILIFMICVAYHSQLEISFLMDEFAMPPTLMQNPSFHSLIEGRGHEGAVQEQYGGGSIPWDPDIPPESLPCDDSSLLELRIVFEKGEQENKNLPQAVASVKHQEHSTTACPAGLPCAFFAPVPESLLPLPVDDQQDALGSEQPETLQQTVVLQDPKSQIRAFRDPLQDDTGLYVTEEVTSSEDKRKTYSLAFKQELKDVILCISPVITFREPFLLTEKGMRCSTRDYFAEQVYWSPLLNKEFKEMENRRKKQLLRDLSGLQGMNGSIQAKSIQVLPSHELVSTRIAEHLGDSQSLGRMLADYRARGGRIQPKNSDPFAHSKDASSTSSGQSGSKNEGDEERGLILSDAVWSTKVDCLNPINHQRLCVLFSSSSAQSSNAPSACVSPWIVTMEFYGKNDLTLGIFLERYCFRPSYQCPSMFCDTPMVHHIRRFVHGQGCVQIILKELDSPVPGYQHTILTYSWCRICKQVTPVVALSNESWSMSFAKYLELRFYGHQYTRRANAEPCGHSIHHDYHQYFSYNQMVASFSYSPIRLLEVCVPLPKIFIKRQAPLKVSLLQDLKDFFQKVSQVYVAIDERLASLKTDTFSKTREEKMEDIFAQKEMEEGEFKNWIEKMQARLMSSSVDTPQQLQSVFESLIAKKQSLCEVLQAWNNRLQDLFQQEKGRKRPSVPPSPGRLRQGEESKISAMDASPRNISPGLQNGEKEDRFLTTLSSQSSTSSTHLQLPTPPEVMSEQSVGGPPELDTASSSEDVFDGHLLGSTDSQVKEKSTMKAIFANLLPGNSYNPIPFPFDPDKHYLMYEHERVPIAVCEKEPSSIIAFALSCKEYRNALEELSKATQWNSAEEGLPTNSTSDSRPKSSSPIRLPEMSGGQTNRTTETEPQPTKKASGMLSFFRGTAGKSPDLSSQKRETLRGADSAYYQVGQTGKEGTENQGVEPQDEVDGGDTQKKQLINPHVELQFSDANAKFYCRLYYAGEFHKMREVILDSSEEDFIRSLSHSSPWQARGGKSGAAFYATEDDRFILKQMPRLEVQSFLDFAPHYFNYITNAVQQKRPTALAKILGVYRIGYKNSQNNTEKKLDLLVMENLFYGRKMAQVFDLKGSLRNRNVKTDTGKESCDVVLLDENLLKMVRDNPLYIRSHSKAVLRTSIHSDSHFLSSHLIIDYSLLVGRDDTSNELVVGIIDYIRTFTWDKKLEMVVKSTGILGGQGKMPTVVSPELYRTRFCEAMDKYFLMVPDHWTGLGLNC
Procedure, shortened: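 HEK293 cells transiently expressing a PIKFYVE-NanoLuc fusion were incubated 2 h at 37 °C, 5% CO2 with compound plus NanoBRET tracer. BRET was read after adding Nano-Glo substrate, giving intracellular target engagement by tracer displacement.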

[1] = Microsomal metabolic stability assay; assay type: in vitro ADME, human or CD1 male mouse; settings: Clint class; 1 μM compound, 0.5 mg/ml microsomes, NADPH, UDPGA, Alamethicin; species not given
Description: The microsomal metabolic stability assay was performed using pooled human or CD1 male mouse interspecies microsomes. Supplemental cofactors (NADPH, UDPGA) and microsomal membrane pore-forming factor (Alamethicin) were added to promote cytochrome P450 (CYP), UGT reactivity to the target compound. Test compounds (1 μM incubation concentration) and microsomes (0.5 mg/ml incubation concentration) were diluted in 0.1 M phosphate buffer, pH 7.4, and incubated (37° C.). The reaction was initiated by the addition of NADPH (1 mM), UDPGA (1 mM) and Alamethicin (25 μg/mg). The incubation times were 0, 5, 15, 30, and 45 minutes, and at each time point, the reaction was terminated by adding acetonitrile containing internal standard (IS)(1:3 ratio). The plate was then sealed, centrifuged (3000 rpm, 20 min, 4° C.), and the supernatant was analyzed by LC-MS/MS. Hepatic extraction ratio values were calculated from the measured in vitro clearance and Intrinsic clearance (Clint) values were calculated from the assay results, and the respective Clint values were categorized into Low, Medium, and High categories based on the reference document (ref. Prostaglandins & other lipid mediators 136 (2018): 90-95).

T1 sequence (Q9Y2I7 whole entry): as above

| ADP-Glo kinase assay (%, 10 nM) (human GST-PIKFYVE) | IC50 (PIKFYVE) | Microsomal metabolic stability [1] | SMILES |
| --- | --- | --- | --- |
| 79.21% | 10 to 20 nM | Medium (Medium 8.8~48,) | Cc1cccc(/C=N/Nc2nc(N3CCOCC3)nc3c2ncn3-c2cccnc2C)c1 [Example 109, (E)-4-(6-(2-(3-methylbenzylidene)hydrazinyl)-9-(2-methylpyridin-3-yl)-9H-purin-2-yl)morpholine] |
| 78.65% | ≤ 10 nM | Medium (Medium 8.8~48,) | Cc1cccc(-c2ccn(-c3nc(N4CCOCC4)nc4c3ncn4-c3ccccc3)n2)c1 [Example 136, 4-(9-phenyl-6-(3-(m-tolyl)-1H-pyrazol-1-yl)-9H-purin-2-yl)morpholine] |
| 80.47% | ≤ 10 nM | low | Cc1cccc(/C=N/Nc2nc(N3CCOCC3)nc3c2ncn3-c2cccc(N(C)C)c2)c1 [Example 202, (E)-N,N-dimethyl-3-(6-(2-(3-methylbenzylidene)hydrazinyl)-2-morpholino-9H-purin-9-yl)aniline] |
| 90.25% | ≤ 10 nM | Low (Low <8.8,) | Cc1cccc(/C=N/Nc2nc(N3CCOCC3)nc3c2ncn3CC(=O)c2ccccc2Cl)c1 [Example 48, (E)-1-(2-chlorophenyl)-2-(6-(2-(3-methylbenzylidene)hydrazinyl)-2-morpholino-9H-purin-9-yl)ethan-1-one] |
| 74.72% | – | Medium (Medium 8.8~48,) | Cc1cccc(/C=N/Nc2nc(N3CCOCC3)nc3c2ncn3CC(=O)c2ccc[nH]2)c1 [Example 34, (E)-2-(6-(2-(3-methylbenzylidene)hydrazinyl)-2-morpholino-9H-purin-9-yl)-1-(1H-pyrrol-2-yl)ethan-1-one] |
| 84.50% | ≤ 10 nM | low | Cc1cccc(/C=N/Nc2nc(N3CCOCC3)nc3c2ncn3-c2ccnc(C(F)(F)F)c2)c1 [Example 139, (E)-4-(6-(2-(3-methylbenzylidene)hydrazinyl)-9-(2-(trifluoromethyl)pyridin-4-yl)-9H-purin-2-yl)morpholine] |
| 92.33% | ≤ 10 nM | Medium (Medium 8.8~48,) | COc1cccc(-n2cnc3c(N/N=C/c4cccc(C)c4)nc(N4CCOCC4)nc32)c1 [Example 121, (E)-4-(9-(3-methoxyphenyl)-6-(2-(3-methylbenzylidene)hydrazinyl)-9H-purin-2-yl)morpholine] |
| 72.15% | 10 to 20 nM | Medium (Medium 8.8~48,) | O=C(Cn1cnc2c(N/N=C/c3c[nH]c4ccccc34)nc(N3CCOCC3)nc21)c1ccccn1 [Example 24, (E)-2-(6-(2-((1H-indol-3-yl)methylene)hydrazinyl)-2-morpholino-9H-purin-9-yl)-1-(pyridin-2-yl)ethan-1-one] |
| 88.80% | ≤ 10 nM | Medium (Medium 8.8~48,) | Cc1cccc(/C=N/Nc2nc(N3CCOCC3)nc3c2ncn3-c2cc(C)n(C)n2)c1 [Example 147, (E)-4-(9-(1,5-dimethyl-1H-pyrazol-3-yl)-6-(2-(3-methylbenzylidene)hydrazinyl)-9H-purin-2-yl)morpholine] |
| 88.76% | ≤ 10 nM | medium | COc1ccc(-n2cnc3c(N/N=C/c4cccc(C)c4)nc(N4CCOCC4)nc32)cc1 [Example 120, (E)-4-(9-(4-methoxyphenyl)-6-(2-(3-methylbenzylidene)hydrazinyl)-9H-purin-2-yl)morpholine] |
| 86.76% | ≤ 10 nM | Medium (Medium 8.8~48,) | C(=N\Nc1nc(N2CCOCC2)nc2c1ncn2-c1ccccc1)/c1c[nH]c2ccccc12 [Example 132, (E)-4-(6-(2-((1H-indol-3-yl)methylene)hydrazinyl)-9-phenyl-9H-purin-2-yl)morpholine] |
| 73.72% | 10 to 20 nM | medium | Cc1cccc(/C=N/Nc2nc(N3CCOCC3)nc3c2nc(C)n3-c2ccccc2)c1 [Example 165, (E)-4-(8-methyl-6-(2-(3-methylbenzylidene)hydrazinyl)-9-phenyl-9H-purin-2-yl)morpholine] |
| 88.34% | ≤ 10 nM | Low (Low <8.8,) | Cc1cccc(/C=N/Nc2nc(N3CCOCC3)nc3c(-c4ccncc4)cccc23)c1 [Example 212, (E)-4-(4-(2-(3-methylbenzylidene)hydrazinyl)-8-(pyridin-4-yl)quinazolin-2-yl)morpholine] |
| 91.20% | ≤ 10 nM | Low (Low <8.8,) | COc1cc(-n2cnc3c(N/N=C/c4cccc(C)c4)nc(N4CCOCC4)nc32)ccn1 [Example 101, (E)-4-(9-(2-methoxypyridin-4-yl)-6-(2-(3-methylbenzylidene)hydrazinyl)-9H-purin-2-yl)morpholine] |
| 74.99% | 10 to 20 nM | Medium (Medium 8.8~48,) | COc1ccc(C(=O)Cn2cnc3c(N/N=C/c4cccc(C)c4)nc(N4CCOCC4)nc32)cc1 [Example 39, (E)-1-(4-methoxyphenyl)-2-(6-(2-(3-methylbenzylidene)hydrazinyl)-2-morpholino-9H-purin-9-yl)ethan-1-one] |
| 70.06% | – | Medium (Medium 8.8~48,) | Cc1cccc(/C=N/Nc2nc(N3CCOCC3)nc3c2ncn3C2CN(S(C)(=O)=O)C2)c1 [Example 85, (E)-4-(6-(2-(3-methylbenzylidene)hydrazinyl)-9-(1-(methylsulfonyl)azetidin-3-yl)-9H-purin-2-yl)morpholine] |
| 89.94% | ≤ 10 nM | Low (Low <8.8,) | Cc1cccc(/C=N/Nc2nc(N3CCOCC3)nc3c2ncn3-c2cccc(F)c2)c1 [Example 129, (E)-4-(9-(3-fluorophenyl)-6-(2-(3-methylbenzylidene)hydrazinyl)-9H-purin-2-yl)morpholine] |
| 84.12% | ≤ 10 nM | Low (Low <8.8,) | Cc1cccc(/C=N/Nc2nc(N3CCOCC3)nc3c2ncn3-c2cccc(C)c2)c1 [Example 127, (E)-4-(6-(2-(3-methylbenzylidene)hydrazinyl)-9-(m-tolyl)-9H-purin-2-yl)morpholine] |
| 94.99% | ≤ 10 nM | medium | Cc1cccc(/C=N/Nc2nc(N3CCOCC3)nc3c(-c4cnn(C)c4)cccc23)c1 [Example 209, (E)-4-(8-(1-methyl-1H-pyrazol-4-yl)-4-(2-(3-methylbenzylidene)hydrazinyl)quinazolin-2-yl)morpholine] |
| 83.75% | ≤ 10 nM | Medium (Medium 8.8~48,) | Cc1cccc(/C=N/Nc2nc(N3CCOCC3)nc3c2ncn3-c2ccc(F)cn2)c1 [Example 149, (E)-4-(9-(5-fluoropyridin-2-yl)-6-(2-(3-methylbenzylidene)hydrazinyl)-9H-purin-2-yl)morpholine] |
| 76.59% | 10 to 20 nM | – | Cc1cccc(/C=N/n2cnc3c(Nc4cccnc4)nc(N4CCOCC4)nc32)c1 [Example 191, (E)-9-((3-methylbenzylidene)amino)-2-morpholino-N-(pyridin-3-yl)-9H-purin-6-amine] |
| 67.10% | 20 to 30 nM | – | Cc1cccc(/C=N/Nc2nc(N3CCOCC3)nc3c2ncn3CC(=O)c2cc(C(F)(F)F)ccn2)c1 [Example 52, (E)-2-(6-(2-(3-methylbenzylidene)hydrazinyl)-2-morpholino-9H-purin-9-yl)-1-(4-(trifluoromethyl)pyridin-2-yl)ethan-1-one] |
| 89.07% | ≤ 10 nM | – | COc1ccccc1C(=O)Cn1cnc2c(N/N=C/c3cccc(C)c3)nc(N3CCOCC3)nc21 [Example 37, (E)-1-(2-methoxyphenyl)-2-(6-(2-(3-methylbenzylidene)hydrazinyl)-2-morpholino-9H-purin-9-yl)ethan-1-one] |
| 84.48% | ≤ 10 nM | – | Cc1cccc(/C=N/Nc2nc(N3CCOCC3)nc3c2ncn3-c2ccc(N(C)C)cc2)c1 [Example 123, (E)-N,N-dimethyl-4-(6-(2-(3-methylbenzylidene)hydrazinyl)-2-morpholino-9H-purin-9-yl)aniline] |

Reference: patent US20250388582A1, “NOVEL BICYCLIC HETEROARYL COMPOUND AND USE THEREOF” (ILDONG PHARMACEUTICAL CO., LTD., priority 2022, published 2025)
